Calls of active or inactive are those of the source. The rule behind the calls is not given here.
Assays:
[1] = target: T1, Peroxisome proliferator-activated receptor delta (Homo sapiens, UniProt Q03181); experiment: Agonist activity at human PPARdelta expressed in HEK293 cells cotransfected with PPREx4-TK-luc assessed as activation of luciferase activity measured after 48 hrs by transactivation assay; format: cell-based
T1 sequence (Q03181 whole entry): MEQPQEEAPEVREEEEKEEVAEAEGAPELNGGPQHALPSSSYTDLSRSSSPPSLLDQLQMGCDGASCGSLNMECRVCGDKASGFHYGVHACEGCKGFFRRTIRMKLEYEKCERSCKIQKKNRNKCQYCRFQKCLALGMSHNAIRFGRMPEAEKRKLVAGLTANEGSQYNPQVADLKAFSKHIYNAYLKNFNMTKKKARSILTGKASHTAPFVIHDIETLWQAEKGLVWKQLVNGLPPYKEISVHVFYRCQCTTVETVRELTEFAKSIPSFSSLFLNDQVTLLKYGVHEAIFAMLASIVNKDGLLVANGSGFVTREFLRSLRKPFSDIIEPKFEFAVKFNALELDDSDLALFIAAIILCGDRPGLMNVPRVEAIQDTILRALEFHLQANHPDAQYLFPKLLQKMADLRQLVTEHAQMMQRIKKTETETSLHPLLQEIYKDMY

[2] = Cytotoxicity against human HEK293 cells assessed as cell viability at 10 uM measured after 48 hrs by MTS assay relative to vehicle control; format: cell-based; settings: read-out: Activity
[3] = Cytotoxicity against human HEK293 cells assessed as cell viability at 100 uM measured after 48 hrs by MTS assay relative to vehicle control; format: cell-based; settings: read-out: Activity
[4] = target: T2, Peroxisome proliferator-activated receptor gamma (Homo sapiens, UniProt P37231); experiment: Agonist activity at human PPARgamma expressed in HEK293 cells cotransfected with PPREx4-TK-luc assessed as activation of luciferase activity measured after 48 hrs by transactivation assay; format: cell-based
T2 sequence (P37231 whole entry): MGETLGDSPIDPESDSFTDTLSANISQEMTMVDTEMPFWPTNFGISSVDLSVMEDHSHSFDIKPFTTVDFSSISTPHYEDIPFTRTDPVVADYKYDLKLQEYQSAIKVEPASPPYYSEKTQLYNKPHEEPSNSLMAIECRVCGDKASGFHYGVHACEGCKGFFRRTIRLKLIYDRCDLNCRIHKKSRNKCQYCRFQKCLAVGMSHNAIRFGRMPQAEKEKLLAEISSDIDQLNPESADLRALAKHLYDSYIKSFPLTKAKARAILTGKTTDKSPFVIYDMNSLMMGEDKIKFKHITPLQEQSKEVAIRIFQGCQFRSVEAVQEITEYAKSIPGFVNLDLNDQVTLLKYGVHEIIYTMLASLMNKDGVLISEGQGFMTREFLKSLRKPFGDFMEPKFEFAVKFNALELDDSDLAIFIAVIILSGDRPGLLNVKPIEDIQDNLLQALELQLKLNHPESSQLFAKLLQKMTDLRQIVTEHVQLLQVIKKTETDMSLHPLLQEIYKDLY

Rattus norvegicus [5] = experiment: Antidiabetic activity against Zucker diabetic fatty rat assessed as blood glucose level at 3 mg/kg (reference value: 124 mg/dL); format: functional
Rattus norvegicus [6] = experiment: Reduction in Zucker diabetic fatty rat body weight gain at 3 mg/kg/day measured after 6 weeks (reference value: 103 g); format: functional
Rattus norvegicus [7] = experiment: Antidiabetic activity against Zucker diabetic fatty rat assessed as blood glucose level at 3 mg/kg after 30 mins (reference value: 270 mg/dL); format: functional
[8] = target: T3, Peroxisome proliferator-activated receptor alpha (Homo sapiens, UniProt Q07869); experiment: Agonist activity at human PPARalpha expressed in HEK293 cells cotransfected with PPREx4-TK-luc assessed as activation of luciferase activity measured after 48 hrs by transactivation assay; format: cell-based
T3 sequence (Q07869 whole entry): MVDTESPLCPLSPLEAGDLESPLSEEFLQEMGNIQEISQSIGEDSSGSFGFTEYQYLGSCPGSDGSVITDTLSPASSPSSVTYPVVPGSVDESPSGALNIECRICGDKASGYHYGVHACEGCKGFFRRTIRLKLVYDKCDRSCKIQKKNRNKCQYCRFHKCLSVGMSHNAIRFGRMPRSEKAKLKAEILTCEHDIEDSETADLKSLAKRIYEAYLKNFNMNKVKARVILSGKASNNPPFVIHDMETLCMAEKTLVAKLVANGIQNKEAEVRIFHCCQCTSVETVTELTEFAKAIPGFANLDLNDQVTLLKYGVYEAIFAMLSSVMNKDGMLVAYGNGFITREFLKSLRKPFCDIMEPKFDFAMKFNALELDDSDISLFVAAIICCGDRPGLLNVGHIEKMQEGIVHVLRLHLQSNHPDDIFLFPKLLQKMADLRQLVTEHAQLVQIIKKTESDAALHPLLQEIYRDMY

Rattus norvegicus [9] = experiment: Reduction in Zucker diabetic fatty rat body weight gain at 3 mg/kg/day measured after 3 weeks; format: functional, organism-based
Rattus norvegicus [10] = experiment: Antimetabolic syndrome activity in Zucker […] rat assessed as inhibition of fatty liver disease in measured as liver mass at 3 mg/kg (reference value: 8.6 g); format: functional
Rattus norvegicus [11] = experiment: Antimetabolic syndrome activity in Zucker diabetic fatty rat assessed as inhibition of fatty liver disease in measured as liver mass at 3 mg/kg (reference value: 23.9 g); format: functional
Rattus norvegicus [12] = experiment: Antidiabetic activity against Zucker diabetic fatty rat assessed as blood glucose level at 3 mg/kg measured after 2 hrs of glucose intake by oral glucose tolerance test (reference value: 185 mg/dL); format: functional

Compound | EC50 [1] | EC50 [4] | EC50 [8] | viability at 48 h, 10 µM [2] | viability at 48 h, 100 µM [3] | Activity (Rattus norvegicus [5]) | Activity (Rattus norvegicus [6]) | Activity (Rattus norvegicus [7]) | Activity (Rattus norvegicus [9]) | Activity (Rattus norvegicus [10]) | Activity (Rattus norvegicus [11]) | Activity (Rattus norvegicus [12])
CC(C)(Oc1ccc(CCNC(=O)c2ccc(Cl)cc2)cc1)C(=O)O [BEZAFIBRATE] | – | 70.4 µM | – | 76% | 73.7% | – | – | – | – | – | – | –
O=c1c(-c2ccc3c(c2)OCO3)coc2cc(O)ccc12 [PSEUDOBAPTOGENIN] | 22.3 µM | – | – | > 90% | – | – | – | – | – | – | – | –
O=c1c(-c2ccc(F)cc2)coc2cc(O)ccc12 | 24.4 µM | – | 23.1 µM | 78% | – | – | – | – | – | – | – | –

Second part, led by results:

EC50 [1] | EC50 [4] | EC50 [8] | Compound | viability at 48 h, 10 µM [2] | viability at 48 h, 100 µM [3] | Activity (Rattus norvegicus [5]) | Activity (Rattus norvegicus [6]) | Activity (Rattus norvegicus [7]) | Activity (Rattus norvegicus [9]) | Activity (Rattus norvegicus [10]) | Activity (Rattus norvegicus [11]) | Activity (Rattus norvegicus [12])
17.2 µM | – | – | COc1cc(OC)cc(-c2coc3cc(O)ccc3c2=O)c1 | 80% | – | – | – | – | – | – | – | –
12.4 µM | – | 33.1 µM | COc1cccc(-c2coc3cc(O)ccc3c2=O)c1 | > 90% | 74% | 113 mg/dL | 94 g | 247 mg/dL | Active | 8.3 g | 19.7 g | 154 mg/dL

Reference: ChEMBL document CHEMBL2331465, “The discovery of novel isoflavone pan peroxisome proliferator-activated receptor agonists” (Bioorg Med Chem, 2013)
